What was measured:
human V2 receptor = target: T1, human V2 receptor (Homo sapiens, UniProt P30518); assay: Cellular in vitro assay for determining vasopressin receptor activity (V2, CRE-luciferase); type: cell-based; conditions: CHO cell line transfected with the human V2 receptor; [Arg8]-vasopressin at EC50 concentration; read-out: IC50 hV2
T1 construct: expressed in transfected cells; host or cells: CHO K1 (ATCC) expressing firefly luciferase under a CRE-responsive promoter
How it was run: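 CHO K1 cells stably expressing the human V2 receptor and a CRE-driven firefly luciferase were plated the day before in DMEM/F12 with 2% FCS. Test compounds were added together with [Arg8]-vasopressin at its EC50 and incubated 3 h at 37 °C. Luciferase luminescence was read after Triton lysis and luciferin addition, giving IC50 values.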

human V1a receptor = target: T2, human V1a receptor (Homo sapiens, UniProt P37288); assay: Cellular in vitro assay for determining vasopressin receptor activity (V1a, aequorin luminescence); type: cell-based; conditions: for IC50: CHO cell line transfected with the human V1a receptor, [Arg8]-vasopressin at EC50 concentration, read-out: IC50 hV1a; for ratio IC50 hV2/hV1a: selectivity ratio of IC50 hV2 to IC50 hV1a
T2 construct: expressed in transfected cells; host or cells: CHO K1 (ATCC), also stably transfected with a modified aequorin
T2 sequence (P37288 whole entry): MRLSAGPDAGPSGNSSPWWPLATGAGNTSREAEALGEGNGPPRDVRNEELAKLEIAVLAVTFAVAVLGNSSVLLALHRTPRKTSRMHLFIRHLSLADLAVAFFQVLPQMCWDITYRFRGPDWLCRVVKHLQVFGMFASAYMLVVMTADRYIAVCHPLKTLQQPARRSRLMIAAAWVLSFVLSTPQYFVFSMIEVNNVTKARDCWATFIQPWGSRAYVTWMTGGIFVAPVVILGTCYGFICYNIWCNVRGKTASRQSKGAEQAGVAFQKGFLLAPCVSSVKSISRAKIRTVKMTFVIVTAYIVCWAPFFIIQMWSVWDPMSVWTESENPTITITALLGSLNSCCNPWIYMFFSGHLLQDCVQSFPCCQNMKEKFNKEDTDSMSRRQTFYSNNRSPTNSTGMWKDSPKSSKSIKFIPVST

T1 sequence (P30518 whole entry): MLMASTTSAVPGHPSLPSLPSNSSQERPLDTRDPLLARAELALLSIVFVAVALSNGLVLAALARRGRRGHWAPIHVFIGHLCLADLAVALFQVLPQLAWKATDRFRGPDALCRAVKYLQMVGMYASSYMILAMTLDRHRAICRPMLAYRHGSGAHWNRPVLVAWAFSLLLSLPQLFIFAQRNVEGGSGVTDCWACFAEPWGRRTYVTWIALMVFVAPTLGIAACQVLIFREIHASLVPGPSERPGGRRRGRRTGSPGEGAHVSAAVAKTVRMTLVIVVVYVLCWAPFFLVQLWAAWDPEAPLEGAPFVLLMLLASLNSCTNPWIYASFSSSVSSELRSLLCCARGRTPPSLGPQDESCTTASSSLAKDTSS

| IC50 (human V2 receptor) | IC50 (human V1a receptor) | ratio IC50 hV2/hV1a (human V1a receptor) | Compound |
| --- | --- | --- | --- |
| 5.8 nM | 0.97 nM | 6.0 | C[C@@H](OC(N)=O)c1nc(Cn2nc(-c3ccc(Cl)cc3)n(C[C@H](O)C(F)(F)F)c2=O)nn1-c1c(Cl)cccc1Cl [Example 2, (1R)-1-[3-({3-(4-Chlorophenyl)-5-oxo-4-[(2S)-3,3,3-trifluoro-2-hydroxypropyl]-4,5-dihydro-1H-1,2,4-triazol-1-yl}methyl)-1-(2,6-dichlorophenyl)-1H-1,2,4-triazol-5-yl]ethyl Carbamate] |
| 6 nM | 0.62 nM | 9.8 | O=C1NC(c2nc(Cn3nc(-c4ccc(Cl)cc4)n(C[C@H](O)C(F)(F)F)c3=O)nn2-c2ccccc2Cl)CO1 (mixture of isomers) [Example 98, 5-(4-Chlorophenyl)-2-({1-(2-chlorophenyl)-5-[2-oxo-1,3-oxazolidin-4-yl]-1H-1,2,4-triazol-3-yl}methyl)-4-[(2S)-3,3,3-trifluoro-2-hydroxypropyl]-2,4-dihydro-3H-1,2,4-triazol-3-one] |
| 8.9 nM | 0.71 nM | 12.5 | CC(=O)NC(CO)c1nc(Cn2nc(-c3ccc(Cl)cc3)n(C[C@H](O)C(F)(F)F)c2=O)nn1-c1ccccc1Cl (mixture of isomers) [Example 91, N-{1-[1-(2-Chlorophenyl)-3-({3-(4-chlorophenyl)-5-oxo-4-[(2S)-3,3,3-trifluoro-2-hydroxypropyl]-4,5-dihydro-1H-1,2,4-triazol-1-yl}methyl)-1H-1,2,4-triazol-5-yl]-2-hydroxyethyl}acetamide] |
| 161 nM | 0.85 nM | 190.5 | C[C@@H](OC(N)=O)c1nc(Cn2nc(-c3ccc(Cl)cc3)n(C[C@H](O)C(F)(F)F)c2=O)nn1-c1ccccc1OC(F)(F)F [Example 8, (1R)-1-{3-({3-(4-Chlorophenyl)-5-oxo-4-[(2S)-3,3,3-trifluoro-2-hydroxypropyl]-4,5-dihydro-1H-1,2,4-triazol-1-yl}methyl)-1-[2-(trifluoromethoxy)phenyl]-1H-1,2,4-triazol-5-yl}ethyl Carbamate] |
| 52 nM | 3.3 nM | 15.8 | C[C@@H](OC(N)=O)c1nc(Cn2nc(-c3ccc(Cl)cc3)n(C[C@H](O)C(F)(F)F)c2=O)nn1-c1c(Cl)cncc1Cl [Example 20, (1R)-1-[3-({3-(4-Chlorophenyl)-5-oxo-4-[(2S)-3,3,3-trifluoro-2-hydroxypropyl]-4,5-dihydro-1H-1,2,4-triazol-1-yl}methyl)-1-(3,5-dichloropyridin-4-yl)-1H-1,2,4-triazol-5-yl]ethyl Carbamate] |
| 10.3 nM | 0.51 nM | 20.3 | C[C@@H](OC(N)=O)c1nc(Cn2nc(-c3ccc(Cl)cc3)n(C[C@H](OC(N)=O)C(F)(F)F)c2=O)nn1-c1ccccc1Cl [Example 32, (2S)-3-[1-({5-[(1R)-1-(Carbamoyloxy)ethyl]-1-(2-chlorophenyl)-1H-1,2,4-triazol-3-yl}methyl)-3-(4-chlorophenyl)-5-oxo-1,5-dihydro-4H-1,2,4-triazol-4-yl]-1,1,1-trifluoropropan-2-yl Carbamate] |
| 105 nM | 52.5 nM | 2.0 | C[C@H](OC(N)=O)c1nc(Cn2nc(-c3ccc(Cl)cc3)n(C[C@H](O)C(F)(F)F)c2=O)nn1-c1ccccn1 [Example 10, (1S)-1-[3-({3-(4-Chlorophenyl)-5-oxo-4-[(2S)-3,3,3-trifluoro-2-hydroxypropyl]-4,5-dihydro-1H-1,2,4-triazol-1-yl}methyl)-1-(pyridin-2-yl)-1H-1,2,4-triazol-5-yl]ethyl Carbamate] |
| 35 nM | 13.5 nM | 2.6 | C[C@@H](OC(N)=O)c1nc(Cn2nc(-c3ccc(Cl)cc3)n(C[C@H](O)C(F)(F)F)c2=O)nn1-c1ncccc1F [Example 13, (1R)-1-[3-({3-(4-Chlorophenyl)-5-oxo-4-[(2S)-3,3,3-trifluoro-2-hydroxypropyl]-4,5-dihydro-1H-1,2,4-triazol-1-yl}methyl)-1-(3-fluoropyridin-2-yl)-1H-1,2,4-triazol-5-yl]ethyl Carbamate] |
| 14.5 nM | 1 nM | 14.5 | CN(C)C1(c2nc(Cn3nc(-c4ccc(Cl)cc4)n(C[C@H](O)C(F)(F)F)c3=O)nn2-c2ccccc2Cl)CC1 [Example 79, 5-(4-Chlorophenyl)-2-({1-(2-chlorophenyl)-5-[1-(dimethylamino)cyclopropyl]-1H-1,2,4-triazol-3-yl}methyl)-4-[(2S)-3,3,3-trifluoro-2-hydroxypropyl]-2,4-dihydro-3H-1,2,4-triazol-3-one] |
| 10.8 nM | 2.05 nM | 5.3 | CC(=O)NC(C)c1nc(Cn2nc(-c3ccc(Cl)cc3)n(C[C@H](O)C(F)(F)F)c2=O)nn1-c1ccccc1Cl (single isomer, unassigned) [Example 65] |
| 7.42 nM | 0.94 nM | 7.9 | C[C@@H](OC(N)=O)c1nc(Cn2nc(-c3ccc(Cl)cc3)n(C[C@H](O)C(F)(F)F)c2=O)nn1-c1ccccc1Cl [Example 31, (1R)-1-[1-(2-Chlorophenyl)-3-({3-(4-chlorophenyl)-5-oxo-4-[(2S)-3,3,3-trifluoro-2-hydroxypropyl]-4,5-dihydro-1H-1,2,4-triazol-1-yl}methyl)-1H-1,2,4-triazol-5-yl]ethyl Carbamate] |
| 7.98 nM | 27.6 nM | 0.3 | COCCNC(=O)OCc1nc(Cn2nc(-c3ccc(Cl)cc3)n(C[C@H](O)C(F)(F)F)c2=O)nn1-c1cccc(F)c1 [Example 44, [3-({3-(4-Chlorophenyl)-5-oxo-4-[(2S)-3,3,3-trifluoro-2-hydroxypropyl]-4,5-dihydro-1H-1,2,4-triazol-1-yl}methyl)-1-(3-fluorophenyl)-1H-1,2,4-triazol-5-yl]methyl (2-methoxyethyl)carbamate] |
| 1550 nM | 190 nM | 8.2 | CC(=O)NC(C)c1nc(Cn2nc(-c3ccc(Cl)cc3)n(C[C@H](O)C(F)(F)F)c2=O)nn1-c1ncccn1 (mixture of isomers) [Example 129, N-{1-[3-({3-(4-Chlorophenyl)-5-oxo-4-[(2S)-3,3,3-trifluoro-2-hydroxypropyl]-4,5-dihydro-1H-1,2,4-triazol-1-yl}methyl)-1-(pyrimidin-2-yl)-1H-1,2,4-triazol-5-yl]ethyl}acetamide] |
| 5.29 nM | 25.9 nM | 0.2 | NC(=O)OCc1nc(Cn2nc(-c3ccc(Cl)cc3)n(C[C@H](O)C(F)(F)F)c2=O)nn1-c1cccc(Cl)c1 [Example 24, [1-(3-Chlorophenyl)-3-({3-(4-chlorophenyl)-5-oxo-4-[(2S)-3,3,3-trifluoro-2-hydroxypropyl]-4,5-dihydro-1H-1,2,4-triazol-1-yl}methyl)-1H-1,2,4-triazol-5-yl]methyl Carbamate] |
| 127 nM | 35.5 nM | 3.6 | C[C@H](OC(N)=O)c1nc(Cn2nc(-c3ccc(Cl)cc3)n(C[C@H](O)C(F)(F)F)c2=O)nn1-c1ncccc1F [Example 12, (1S)-1-[3-({3-(4-Chlorophenyl)-5-oxo-4-[(2S)-3,3,3-trifluoro-2-hydroxypropyl]-4,5-dihydro-1H-1,2,4-triazol-1-yl}methyl)-1-(3-fluoropyridin-2-yl)-1H-1,2,4-triazol-5-yl]ethyl Carbamate] |
| 134 nM | 5.8 nM | 23.1 | O=C1NC(c2nc(Cn3nc(-c4ccc(Cl)cc4)n(C[C@H](O)C(F)(F)F)c3=O)nn2-c2ncccc2Cl)CO1 (single isomer, unassigned) [Example 113] |
| 1730 nM | 18.5 nM | 93.5 | CN1C(=O)CCC1c1nc(Cn2nc(-c3ccc(Cl)cc3)n(C[C@H](O)C(F)(F)F)c2=O)nn1CCC(F)(F)F (single isomer, unassigned) [Example 132] |
| 285 nM | 5.4 nM | 52.8 | C[C@@H](OC(N)=O)c1nc(Cn2nc(-c3ccc(Cl)cc3)n(C[C@H](O)C(F)(F)F)c2=O)nn1-c1ncccc1OC(F)(F)F [Example 23, (1R)-1-{3-({3-(4-Chlorophenyl)-5-oxo-4-[(2S)-3,3,3-trifluoro-2-hydroxypropyl]-4,5-dihydro-1H-1,2,4-triazol-1-yl}methyl)-1-[3-(trifluoromethoxy)pyridin-2-yl]-1H-1,2,4-triazol-5-yl}ethyl Carbamate] |
| 875 nM | 57 nM | 15.4 | O=C1NC(c2nc(Cn3nc(-c4ccc(Cl)cc4)n(C[C@H](O)C(F)(F)F)c3=O)nn2-c2ncccc2OC(F)(F)F)CO1 (single isomer, unassigned) [Example 119] |
| 2.43 nM | 0.83 nM | 2.9 | CC(NS(C)(=O)=O)c1nc(Cn2nc(-c3ccc(Cl)cc3)n(C[C@H](O)C(F)(F)F)c2=O)nn1-c1ccccc1Cl (mixture of isomers) [Example 67, N-{1-[1-(2-Chlorophenyl)-3-({3-(4-chlorophenyl)-5-oxo-4-[(2S)-3,3,3-trifluoro-2-hydroxypropyl]-4,5-dihydro-1H-1,2,4-triazol-1-yl}methyl)-1H-1,2,4-triazol-5-yl]ethyl}methanesulfonamide] |
| 13.4 nM | 1.46 nM | 9.2 | C[C@@H](OC(N)=O)c1nc(Cn2nc(-c3ccc(Cl)cc3)n(C[C@H](O)C(F)(F)F)c2=O)nn1-c1ccc(F)cc1Cl [Example 4, (1R)-1-[1-(2-Chloro-4-fluorophenyl)-3-({3-(4-chlorophenyl)-5-oxo-4-[(2S)-3,3,3-trifluoro-2-hydroxypropyl]-4,5-dihydro-1H-1,2,4-triazol-1-yl}methyl)-1H-1,2,4-triazol-5-yl]ethyl Carbamate] |

— patent US20210253557A1, “SUBSTITUTED TRIAZOLE DERIVATIVES AND USES THEREOF” (Bayer Pharma Aktiengesellschaft, priority 2017, published 2021)
